Calls of active or inactive are those of the source.
How the values were obtained:
[1] = growth suppression of beta-catenin-knockout colon cells, dose response, cell-based, HCT116, human colon tumor (AID 1045); type: functional;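 also: HCT116 colon tumor cells with beta catenin knocked out; cells exposed to compound for 60 hours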
[2] = growth suppression of PTEN-null colon cells, dose response, cell-based, HCT116 PTEN knockout (AID 1047); type: functional;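 also: HCT116 colon tumor cells with PTEN knocked out; cells exposed to compound for 60 hours before readout; potency for loss of cell viability measured by luminescence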
[3] = biological target: Hepatocyte nuclear factor 4-alpha (Homo sapiens, UniProt P41235); type: functional, cell-based;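 also: biochemical luminescence-based dose-response counterscreen measuring inhibition of HNF4 dimerization, run alongside a screen for blockers of ABHD5–perilipin-5 interaction; split luciferase complementation of HNF4 fusion proteins in cell lysate measuring dimerization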
Hepatocyte nuclear factor 4-alpha, sequence (P41235 whole entry, the tested form may be a part): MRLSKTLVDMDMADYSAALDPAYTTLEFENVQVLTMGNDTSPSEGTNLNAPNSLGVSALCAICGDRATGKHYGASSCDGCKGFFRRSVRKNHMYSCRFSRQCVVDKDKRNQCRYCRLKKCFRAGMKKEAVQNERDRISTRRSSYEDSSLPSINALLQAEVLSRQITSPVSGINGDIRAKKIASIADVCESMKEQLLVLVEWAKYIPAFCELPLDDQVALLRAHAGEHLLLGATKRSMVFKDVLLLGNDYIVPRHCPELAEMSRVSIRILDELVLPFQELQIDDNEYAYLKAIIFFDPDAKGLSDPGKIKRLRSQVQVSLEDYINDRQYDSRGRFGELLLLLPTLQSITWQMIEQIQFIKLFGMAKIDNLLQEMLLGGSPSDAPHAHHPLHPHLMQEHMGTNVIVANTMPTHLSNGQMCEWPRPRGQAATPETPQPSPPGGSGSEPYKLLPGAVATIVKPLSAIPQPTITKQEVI

[4] = cytotoxicity in HEK-293T cells, dose response, cytotoxicity control for BCR NF-kB inhibitor project, luminescence, B-cell screen hits (AID 489021); type: functional, cell-based;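 also: HEK-293T cells carrying an NF-kB luciferase reporter; cells exposed to compound for about 14 hours before viability readout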
[5] = biological target: Fructose-bisphosphate aldolase (Mycobacterium tuberculosis, UniProt P9WQA3); experiment: Fluorescence-based biochemical high throughput dose response assay for inhibitors of the fructose-bisphosphate aldolase (FBA) of M. tuberculosis.; type: functional
Fructose-bisphosphate aldolase, sequence (P9WQA3 whole entry): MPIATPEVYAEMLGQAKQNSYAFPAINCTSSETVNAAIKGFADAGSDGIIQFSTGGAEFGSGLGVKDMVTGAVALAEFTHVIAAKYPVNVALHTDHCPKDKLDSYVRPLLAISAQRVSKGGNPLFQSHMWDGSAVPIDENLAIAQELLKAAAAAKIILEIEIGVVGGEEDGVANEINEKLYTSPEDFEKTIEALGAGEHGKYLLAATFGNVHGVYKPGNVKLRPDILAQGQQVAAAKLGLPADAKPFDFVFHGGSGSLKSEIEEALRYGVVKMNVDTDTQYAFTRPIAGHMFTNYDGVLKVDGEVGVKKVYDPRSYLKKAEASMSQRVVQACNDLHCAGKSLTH

[6] = biological target: Botulinum neurotoxin type F (Clostridium botulinum, UniProt P30996); experiment: High-throughput multiplex microsphere dose response for inhibitors of toxin protease, specifically Botulinum neurotoxin light chain F protease, compounds from Cherry Pick 02.; type: functional; conditions: read-out: EC50_MICROM
Botulinum neurotoxin type F, sequence (P30996 1-436 limits assumed): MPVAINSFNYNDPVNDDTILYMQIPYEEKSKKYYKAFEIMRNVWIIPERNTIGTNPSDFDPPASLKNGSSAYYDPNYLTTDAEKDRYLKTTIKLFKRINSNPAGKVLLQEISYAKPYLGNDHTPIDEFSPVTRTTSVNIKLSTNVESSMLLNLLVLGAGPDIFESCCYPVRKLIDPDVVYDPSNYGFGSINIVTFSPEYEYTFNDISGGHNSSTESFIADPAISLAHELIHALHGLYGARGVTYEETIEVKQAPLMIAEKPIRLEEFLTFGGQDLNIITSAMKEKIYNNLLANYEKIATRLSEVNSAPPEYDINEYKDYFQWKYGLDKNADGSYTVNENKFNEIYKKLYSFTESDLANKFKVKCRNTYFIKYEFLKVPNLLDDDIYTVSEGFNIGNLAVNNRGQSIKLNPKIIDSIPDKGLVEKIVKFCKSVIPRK

Mu-type opioid receptor = Mu-type opioid receptor (Homo sapiens, UniProt P35372); type: functional, cell-based;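 also: U2OS cells with beta-arrestin recruitment to OPRM1 by beta-gal complementation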
Mu-type opioid receptor, sequence (P35372 whole entry): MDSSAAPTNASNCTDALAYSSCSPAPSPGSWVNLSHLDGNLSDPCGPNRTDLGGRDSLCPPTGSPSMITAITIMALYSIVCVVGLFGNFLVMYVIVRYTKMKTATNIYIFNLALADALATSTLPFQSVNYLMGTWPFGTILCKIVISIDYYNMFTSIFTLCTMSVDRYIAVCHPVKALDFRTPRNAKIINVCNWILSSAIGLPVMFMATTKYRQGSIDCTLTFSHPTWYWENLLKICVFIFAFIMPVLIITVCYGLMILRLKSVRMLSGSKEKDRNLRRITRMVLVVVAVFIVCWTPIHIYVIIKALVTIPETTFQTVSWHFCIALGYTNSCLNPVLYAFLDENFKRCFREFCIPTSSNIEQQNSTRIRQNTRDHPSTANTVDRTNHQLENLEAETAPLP

[7] = biological target: 5-hydroxytryptamine receptor 2A (Mus musculus, UniProt P35363); type: functional, cell-based;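 also: CHO-K1 cells with tagged receptor and beta-arrestin; agonist potency measured as compound-induced activation of the receptor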
5-hydroxytryptamine receptor 2A, sequence (P35363 whole entry): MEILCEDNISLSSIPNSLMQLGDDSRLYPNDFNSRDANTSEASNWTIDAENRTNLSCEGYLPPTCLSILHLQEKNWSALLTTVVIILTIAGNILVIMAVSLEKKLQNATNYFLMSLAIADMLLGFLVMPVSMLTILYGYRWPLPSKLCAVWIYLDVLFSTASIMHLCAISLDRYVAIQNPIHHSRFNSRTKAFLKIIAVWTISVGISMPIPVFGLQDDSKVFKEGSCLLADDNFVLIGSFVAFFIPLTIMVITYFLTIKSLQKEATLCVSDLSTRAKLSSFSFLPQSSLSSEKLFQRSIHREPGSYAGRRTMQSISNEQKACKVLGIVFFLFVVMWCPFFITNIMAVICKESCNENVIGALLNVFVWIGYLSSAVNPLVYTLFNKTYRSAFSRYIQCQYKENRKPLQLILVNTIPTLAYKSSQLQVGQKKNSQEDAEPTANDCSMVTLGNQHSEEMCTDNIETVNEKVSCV

cells = type: functional, cell-based
[8] = biological target: Nuclear receptor subfamily 0 group B member 1 (Homo sapiens, UniProt P51843); type: functional, cell-based;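 also: HEK293T cells transfected with SF-1 and DAX-1 plus StAR promoter luciferase reporter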
Nuclear receptor subfamily 0 group B member 1, sequence (P51843 whole entry): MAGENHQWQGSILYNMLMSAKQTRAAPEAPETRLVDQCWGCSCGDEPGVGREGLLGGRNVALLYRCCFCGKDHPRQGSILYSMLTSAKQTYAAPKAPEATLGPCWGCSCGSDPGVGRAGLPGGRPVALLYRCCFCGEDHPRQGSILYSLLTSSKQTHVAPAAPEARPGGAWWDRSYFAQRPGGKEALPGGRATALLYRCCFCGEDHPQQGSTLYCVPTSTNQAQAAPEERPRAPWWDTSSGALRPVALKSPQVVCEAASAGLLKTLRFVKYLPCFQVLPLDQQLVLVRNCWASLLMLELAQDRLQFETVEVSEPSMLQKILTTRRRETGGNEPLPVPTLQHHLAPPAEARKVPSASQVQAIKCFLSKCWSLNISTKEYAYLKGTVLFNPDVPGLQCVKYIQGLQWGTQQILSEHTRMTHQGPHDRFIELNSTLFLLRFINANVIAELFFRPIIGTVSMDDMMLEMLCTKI

[9] = Luminescence Cell-Based Dose Response HTS to Identify Activators of Luciferase Translation or Activity in H4 […] Cells. [Related pubchem assays: 1829 (Project Summary), 1814 (Primary HTS)]; type: functional
[10] = HEK293 cell cytotoxicity, dose response, cytotoxicity control, plate reader, cherry-picked samples (AID 743446); type: functional, cell-based
H4 = experiment: Luminescence Cell-Based Dose Response HTS to Identify Activators of 5'UTR Stem-Loop Driven Prion Protein mRNA Translation in H4 Neuroglioblastoma Cells. [Related pubchem assays: 1829 (Project Summary), 1814 (Primary HTS)]; type: functional; conditions: Homo sapiens
[11] = A549 cell cytotoxicity, dose response, cytotoxicity control, plate reader, cherry-pick, antagonist series (AID 743412); type: functional, cell-based
[12] = biological target: T1, Heat shock factor protein 1 (Mus musculus, UniProt P38532); experiment: inhibition of MG132-induced HSE-luciferase signal, confirmation, cell-based, NIH3T3, luminescence, dose retest (AID 2382); type: functional;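 also: NIH3T3 fibroblasts with HSF1-driven luciferase reporter stressed by proteasome inhibitor MG132; luminescence from HSF1-driven luciferase expression after 8 hours of MG132 stress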
T1 sequence (P38532 whole entry): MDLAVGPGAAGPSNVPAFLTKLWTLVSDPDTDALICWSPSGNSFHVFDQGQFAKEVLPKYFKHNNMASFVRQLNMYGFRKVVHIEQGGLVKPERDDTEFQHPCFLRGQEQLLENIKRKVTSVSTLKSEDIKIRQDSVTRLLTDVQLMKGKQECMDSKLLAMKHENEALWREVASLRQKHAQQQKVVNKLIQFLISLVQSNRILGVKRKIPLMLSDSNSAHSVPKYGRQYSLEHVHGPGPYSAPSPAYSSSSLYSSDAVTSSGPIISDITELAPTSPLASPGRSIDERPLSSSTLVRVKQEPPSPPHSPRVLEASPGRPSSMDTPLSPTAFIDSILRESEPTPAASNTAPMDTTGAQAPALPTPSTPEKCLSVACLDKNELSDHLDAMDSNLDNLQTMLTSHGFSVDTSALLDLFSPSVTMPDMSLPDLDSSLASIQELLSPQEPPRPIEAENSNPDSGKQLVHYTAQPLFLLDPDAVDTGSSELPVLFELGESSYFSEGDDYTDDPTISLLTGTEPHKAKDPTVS

[13] = LGR2 antagonists, dose response, cell-based, HEK293, CRE-luciferase reporter, cherry pick, set 2 (AID 743343); type: functional;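 also: transfected cells were stimulated with diluted bursicon conditioned medium after compound addition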
[14] = MC4R antagonists, dose response, counter-screen for LGR2 antagonist project, cell-based, plate reader, cherry pick (AID 743444); type: functional;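 also: transfected HEK 293 cells stimulated with alpha-MSH peptide; potency of inhibitors of the alpha-MSH evoked signal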
[15] = Luminescence Cell-Based Dose Confirmation HTS to Identify Activators of 5'UTR Stem-Loop Driven Alpha-Synuclein mRNA Translation in H4 Neuroglioblastoma Cells. [Related pubchem assays: 1829 (Project Summary), 1814 (Primary HTS)]; type: functional
[16] = biological target: DNA repair protein RAD52 homolog (Homo sapiens, UniProt P43351); type: functional, biochemical
DNA repair protein RAD52 homolog, sequence (P43351 whole entry): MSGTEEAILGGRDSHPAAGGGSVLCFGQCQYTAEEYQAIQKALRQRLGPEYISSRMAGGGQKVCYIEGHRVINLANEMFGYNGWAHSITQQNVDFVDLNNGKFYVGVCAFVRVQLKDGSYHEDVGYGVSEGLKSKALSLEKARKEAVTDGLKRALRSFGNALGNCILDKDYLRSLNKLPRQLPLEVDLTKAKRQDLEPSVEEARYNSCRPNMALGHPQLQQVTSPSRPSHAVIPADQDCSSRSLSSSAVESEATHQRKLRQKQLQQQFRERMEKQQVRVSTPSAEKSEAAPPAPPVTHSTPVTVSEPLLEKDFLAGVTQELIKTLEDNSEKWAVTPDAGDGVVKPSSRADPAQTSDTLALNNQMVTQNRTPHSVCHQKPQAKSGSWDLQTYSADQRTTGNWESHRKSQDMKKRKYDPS

[17] = cytotoxicity toward NIH3T3 fibroblasts, dose response, counter-screen, cell-based, ATP luminescence, mouse fibroblasts (AID 2010); type: functional;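 also: cells exposed to compound for about 90 hours before reading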
[18] = inhibitors of intracellular T. cruzi replication, confirmation, NIH3T3 host cells, beta-gal luminescence (AID 2044); type: functional, cell-based;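 also: intracellular parasites grown in NIH/3T3 mouse fibroblasts as host cells; luminescent beta-galactosidase reporter signal from transgenic T. cruzi replicating inside host cells; inhibitors lower the luminescence signal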
[19] = Luminescence Cell-Based Dose Retest to Confirm Inhibitors of Cancer Stem Cells. [Related pubchem assays (depositor defined):AID2717, AID2721]; type: functional; conditions: Homo sapiens
[20] = human group III sPLA2 inhibitors, dose response, biochemical, QFRET, IC50 (AID 743457);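 also: green fluorescence rise as the enzyme cleaves BODIPY PC-A2 in liposomes; potency for inhibition of the enzyme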
[21] = ADAM10 inhibitors, peptide cleavage, dose response, biochemical, QFRET (AID 743254);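 also: ADAM10 enzyme with the DM2 quenched FRET peptide as substrate; EDANS fluorescence gain as the protease cuts the substrate; inhibitor potency against ADAM10 proteolytic activity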
[22] = biological target: Disintegrin and metalloproteinase domain-containing protein 17 (Homo sapiens, UniProt P78536); experiment: ADAM17 protease inhibitors, dose response, counter-screen for ADAM10 exosite inhibitor project, biochemical, quenched FRET substrate (AID 743253)
[23] = biological target: T2, Polyadenylate-binding protein 1 (Homo sapiens, UniProt P11940); experiment: PABP1 MLLE–PAM2 binding inhibitor potency, dose response, biochemical, fluorescence polarization, FITC-PAM2 peptide (AID 602259); type: functional; conditions: read-out: IC50_Mean
T2 sequence (P11940 whole entry): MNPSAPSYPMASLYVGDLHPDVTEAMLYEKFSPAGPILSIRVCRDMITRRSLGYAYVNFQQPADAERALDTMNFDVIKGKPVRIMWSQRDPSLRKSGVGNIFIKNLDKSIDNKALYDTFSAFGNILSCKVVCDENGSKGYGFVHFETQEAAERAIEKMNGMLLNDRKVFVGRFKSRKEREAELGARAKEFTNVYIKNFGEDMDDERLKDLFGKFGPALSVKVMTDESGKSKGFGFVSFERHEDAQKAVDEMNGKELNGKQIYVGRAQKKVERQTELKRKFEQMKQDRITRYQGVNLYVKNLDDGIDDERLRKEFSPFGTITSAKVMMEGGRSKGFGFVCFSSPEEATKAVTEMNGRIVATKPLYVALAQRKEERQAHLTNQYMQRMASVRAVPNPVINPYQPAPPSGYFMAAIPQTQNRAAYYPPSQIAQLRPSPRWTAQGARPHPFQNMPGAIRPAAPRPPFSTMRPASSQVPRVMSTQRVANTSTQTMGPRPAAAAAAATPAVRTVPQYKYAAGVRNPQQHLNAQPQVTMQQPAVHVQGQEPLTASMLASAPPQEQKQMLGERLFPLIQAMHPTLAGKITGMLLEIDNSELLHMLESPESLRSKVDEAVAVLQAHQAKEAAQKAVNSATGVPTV

[24] = biological target: T2, Polyadenylate-binding protein 1; experiment: PABP1 MLLE–PAM2 interaction inhibitors, dose response, miRNA deadenylation inhibitor project, biochemical, fluorescence polarization, Cy5-PAM2 peptide, secondary (AID 602260); type: functional; conditions: read-out: IC50_Mean
[25] = biological target: DNA dC->dU-editing enzyme APOBEC-3G (Homo sapiens, UniProt Q9HC16); type: functional;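 also: Dose-response counterscreen measuring inhibition of APOBEC3G DNA deaminase activity, run while confirming APOBEC3A inhibitors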
Beta-galactosidase = Beta-galactosidase (Escherichia coli, UniProt Q8VNN2); experiment: Dose response counterscreen for EBI2 assay utilizing the enzyme, b-galactosidase.; type: functional
Beta-galactosidase, sequence (Q8VNN2 whole entry): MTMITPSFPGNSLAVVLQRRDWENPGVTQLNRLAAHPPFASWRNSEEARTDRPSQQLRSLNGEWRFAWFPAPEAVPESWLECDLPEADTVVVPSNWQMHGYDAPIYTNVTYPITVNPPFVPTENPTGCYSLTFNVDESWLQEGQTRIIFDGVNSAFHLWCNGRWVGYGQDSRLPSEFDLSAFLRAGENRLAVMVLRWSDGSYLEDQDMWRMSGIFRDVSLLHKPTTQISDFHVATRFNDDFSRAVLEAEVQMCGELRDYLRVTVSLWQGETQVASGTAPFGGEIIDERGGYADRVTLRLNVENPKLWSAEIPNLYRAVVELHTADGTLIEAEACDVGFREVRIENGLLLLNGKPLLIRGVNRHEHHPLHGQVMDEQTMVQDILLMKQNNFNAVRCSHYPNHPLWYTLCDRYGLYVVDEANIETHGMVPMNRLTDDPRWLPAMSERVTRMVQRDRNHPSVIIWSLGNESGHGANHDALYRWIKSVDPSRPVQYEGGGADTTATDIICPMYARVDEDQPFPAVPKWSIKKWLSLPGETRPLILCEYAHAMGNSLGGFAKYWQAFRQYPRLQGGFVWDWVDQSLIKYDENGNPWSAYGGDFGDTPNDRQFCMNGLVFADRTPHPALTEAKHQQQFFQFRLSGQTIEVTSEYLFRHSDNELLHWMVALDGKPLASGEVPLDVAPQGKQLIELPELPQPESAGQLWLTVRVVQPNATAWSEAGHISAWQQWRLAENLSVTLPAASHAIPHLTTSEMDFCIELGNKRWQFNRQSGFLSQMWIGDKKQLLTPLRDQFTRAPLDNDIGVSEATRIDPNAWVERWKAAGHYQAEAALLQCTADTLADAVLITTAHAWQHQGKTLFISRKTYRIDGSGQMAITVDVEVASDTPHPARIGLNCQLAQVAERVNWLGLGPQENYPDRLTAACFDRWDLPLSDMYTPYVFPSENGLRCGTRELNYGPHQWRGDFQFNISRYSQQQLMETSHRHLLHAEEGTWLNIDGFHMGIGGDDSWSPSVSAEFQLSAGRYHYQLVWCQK

[26] = biological target: DNA dC->dU-editing enzyme APOBEC-3A (Homo sapiens, UniProt P31941); experiment: Dose Response confirmation of small molecule APOBEC3A DNA Deaminase Inhibitors via a fluorescence-based single-stranded DNA deaminase assay. [Related pubchem assays (depositor defined):AID493011, AID493024]; type: functional
DNA dC->dU-editing enzyme APOBEC-3A, sequence (P31941 whole entry): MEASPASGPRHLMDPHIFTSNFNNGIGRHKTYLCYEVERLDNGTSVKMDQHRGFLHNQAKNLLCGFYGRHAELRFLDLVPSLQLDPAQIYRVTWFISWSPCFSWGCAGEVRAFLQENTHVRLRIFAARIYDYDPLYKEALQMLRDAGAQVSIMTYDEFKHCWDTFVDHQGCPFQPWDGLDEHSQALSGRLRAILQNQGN

Structure (SMILES): CC1=CC(C)(C)Nc2ccc(OC(=O)C(C)N3C(=O)c4ccccc4C3=O)cc21 (stereo unspecified)
- EC50 [1]: 7.55 µM (active)
- EC50 [2]: 8.18 µM (active)
- IC50 [3]: 11.1 µM (inactive)
- IC50 [4]: > 80 µM (inactive)

Structure (SMILES): O=C1NC(=O)c2cc(NC(=O)C3CCCO3)ccc21 (stereo unspecified)
- IC50 [5]: 2.39 µM (active)

Structure (SMILES): COc1ccccc1C(CNC(=O)c1ccc(C)c(S(=O)(=O)N2CCCCC2)c1)N1CCCC1 (stereo unspecified)
- EC50 [6]: > 20 µM (inactive)

Structure (SMILES): CCOc1cc(CN2CCN(c3ncccn3)CC2)ccc1OC
- EC50 (Mu-type opioid receptor): 92.5 µM (inactive)
- EC50 [7]: 76.1 µM (inactive)

Structure (SMILES): CCOC(=O)c1c(SCC(=O)Nc2nccs2)nc(C)c(C)c1C
- IC50 (cells): > 67.5 µM (inactive)
- IC50 [8]: > 67.5 µM (inactive)

Structure (SMILES): CN(C(=O)COC(=O)c1nc(Cl)c(Cl)c(Cl)c1Cl)C1CCS(=O)(=O)C1 (stereo unspecified)
- EC50 [9]: > 120 µM (not active)
- AC50 [10]: 6.09 µM (active)
- EC50 (H4): > 120 µM (not active)
- AC50 [11]: 7.97 µM (active)
- EC50 [12]: 13.1 µM (active)
- AC50 [13]: 15.8 µM (active)
- AC50 [14]: 22.7 µM (active)
- EC50 [15]: > 120 µM (not active)

Structure (SMILES): Cc1cc(N2CCN(C)CC2)nc2ccc(NC(S)=NCCC(C)C)cc12
- AC50 [16]: 28.2 µM (active)
- EC50 [17]: 8.05 µM (active)
- EC50 [18]: 0.746 µM (active)
- AC50 [19]: 1.24 µM (active)

Structure (SMILES): CCN(CC)c1ccc(NC(=O)CSc2nc3ccccc3c(=O)n2-c2ccc(C)cc2)cc1
- IC50 [20]: 60.3 µM (inactive)
- IC50 [21]: > 69.5 µM (inactive)
- IC50 [22]: > 69.5 µM (inactive)

Structure (SMILES): Cc1cc2cc(CNC(=O)c3cccc([N+](=O)[O-])c3)ccc2[nH]1
- EC50 [6]: > 20 µM (inactive)
- IC50 [23]: > 66 µM (inactive)
- IC50 [24]: > 66 µM (inactive)

Structure (SMILES): COc1ccccc1CCNC(=O)C1CCN(C(=O)/C=C/c2ccccc2)CC1
- IC50 [25]: 14.6 µM (active)
- IC50 (Beta-galactosidase): > 80 µM (inactive)
- IC50 [26]: 13.9 µM (active)

— ChEMBL document CHEMBL1201862, “PubChem BioAssay data set” (2004)
